Reference: patent US20230203043A1, “NOVEL IMIDAZOPYRAZINE DERIVATIVES” (Hoffmann-La Roche Inc., priority 2020, published 2023)
Where a name gives a salt, the structure may show the parent alone. Read-outs that look alike come from different tables or passages of the source.

Test system: Acinetobacter baumannii ATCC17961
Assay: Antimicrobial susceptibility testing: 90% growth inhibitory concentration (IC90) determination in Iso-Sensitest broth, OD600 growth
Type: cell-based
Outline: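 Growth monitored at 600 nm every 20 min for 16 h at 35±2 °C, inoculum ~5×10^(5) CFU/ml in Iso-Sensitest medium. Compounds in 10-point twofold series, e.g. 50 to 0.097 μM final; 90% inhibitory concentration taken from log-phase growth.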

[1] = Acinetobacter baumannii, ATCC17961, 16 h, strain ATCC 17961, OD600 growth over 16 h, read-out: A. baumannii ATCC 17961 IC90
[2] = Acinetobacter baumannii, ATCC17961, 16 h, read-out: A. baumannii ATCC 17961 IC90 (uM), strain ATCC 17961, OD600 growth over 16 h
[3] = strain ATCC 17961, OD600 growth over 16 h, read-out: A. baumannii ATCC 17961 IC90

| SMILES | IC90 [1] [µM] | also measured |
| --- | --- | --- |
| Cc1cc(Nc2nccn3c(-c4cn(CC#N)nc4C(F)(F)F)cnc23)cc(F)c1C(=O)N1CCN(C(=O)[C@H](C)N)CC1 [Example 682, 2-(4-(8-((4-(4-(L-alanyl)piperazine-1-carbonyl)-3-fluoro-5-methylphenyl)amino)imidazo[1,2-a]pyrazin-3-yl)-3-(trifluoromethyl)-1H-pyrazol-1-yl) acetonitrile formate] | – | IC90 [2]: 0.329 µM |
| C#CCn1cc(-c2cnc3c(Nc4ccc(C(=O)NCCCN)c(CC)c4)nccn23)c(C(F)(F)F)n1 [Example 47, N-(3-aminopropyl)-2-ethyl-4-[[3-[1-prop-2-ynyl-3-(trifluoromethyl)pyrazol-4-yl]imidazo[1,2-a]pyrazin-8-yl]amino] benzamide] | – | IC90 [3]: 0.105 µM |
| COCCn1cc(-c2cnc3c(Nc4ccc(C(=O)N5CCN(C(=O)NCCN)CC5)c(Cl)c4)nccn23)c(C(F)(F)F)n1 [Example 290, N-(2-aminoethyl)-4-[2-chloro-4-[[3-[1-(2-methoxyethyl)-3-(trifluoromethyl)pyrazol-4-yl]imidazo[1,2-a]pyrazin-8-yl]amino]benzoyl] piperazine-1-carboxamide formate] | – | IC90 [3]: 0.33 µM |
| CCc1cc(Nc2nccn3c(-c4cn(CC(F)F)nc4C(F)(F)F)cnc23)ccc1C(=O)NCC(=O)NC1C2CNCC21 (stereo not shown) [Example 529, N-[2-(3-azabicyclo[3.1.0]hexan-6-ylamino)-2-oxo-ethyl]-4-[[3-[1-(2,2-difluoroethyl)-3-(trifluoromethyl)pyrazol-4-yl]imidazo[1,2-a]pyrazin-8-yl]amino]-2-ethyl-benzamide formate] | – | IC90 [2]: 0.248 µM |
| C#CCn1cc(-c2cnc3c(Nc4ccc(C(=O)NCCOCCN)c(C)c4)nccn23)c(C(F)(F)F)n1 [Example 16, N-[2-(2-aminoethoxy)ethyl]-2-methyl-4-[[3-[1-prop-2-ynyl-3-(trifluoromethyl)pyrazol-4-yl]imidazo[1,2-a]pyrazin-8-yl]amino]benzamide] | 0.069 | – |
| CCc1cc(Nc2nccn3c(-c4cn(CC(F)F)nc4C#N)cnc23)ccc1C(=O)NCCOCCN [Example 832, N-(2-(2-aminoethoxy)ethyl)-4-((3-(3-cyano-1-(2,2-difluoroethyl)-1H-pyrazol-4-yl)imidazo[1,2-α]pyrazin-8-yl)amino)-2-ethylbenzamide] | 0.48 | – |
| Cc1cc(Nc2nccn3c(-c4cn(CC#N)nc4C(F)(F)F)cnc23)ccc1C(=O)N[C@H](C)C(=O)N[C@@H]1CCNC1 [Example 746, 4-[[3-[1-(cyanomethyl)-3-(trifluoromethyl)pyrazol-4-yl]imidazo[1,2-a]pyrazin-8-yl]amino]-2-methyl-N-[(1R)-1-methyl-2-oxo-2-[[(3R)-pyrrolidin-3-yl]amino]ethyl] benzamide formate] | 0.581 | – |
| CCc1cc(Nc2nccn3c(-c4c(C(F)(F)F)n[nH]c4C)cnc23)ccc1C(=O)NCCOCCN [Example 24, N-[2-(2-aminoethoxy)ethyl]-2-ethyl-4-[[3-[5-methyl-3-(trifluoromethyl)-1H-pyrazol-4-yl]imidazo[1,2-a]pyrazin-8-yl]amino] benzamide formate] | – | IC90 [3]: 0.523 µM |
| CNC(=O)c1ccc(Nc2nccn3c(-c4cn(Cc5cc[nH]n5)nc4C(F)(F)F)cnc23)cc1Cl [Example 284, 2-chloro-N-methyl-4-[[3-[1-(1H-pyrazol-3-ylmethyl)-3-(trifluoromethyl)pyrazol-4-yl]imidazo[1,2-a]pyrazin-8-yl]amino]benzamide] | 0.177 | – |
| CCc1cc(Nc2nccn3c(-c4cn(CC#N)nc4C(F)(F)F)cnc23)ccc1C(=O)NCC(=O)N1CC2CC1CN2 (stereo not shown) [Example 512, 4-[[3-[1-(cyanomethyl)-3-(trifluoromethyl)pyrazol-4-yl]imidazo[1,2-a]pyrazin-8-yl]amino]-N-[2-(2,5-diazabicyclo[2.2.1]heptan-2-yl)-2-oxo-ethyl]-2-ethyl-benzamide formate] | – | IC90 [2]: 0.341 µM |
| N[C@@H]1CC[C@@H](C(=O)N2CCN(C(=O)c3ccc(Nc4nccn5c(-c6cn(CC(F)F)nc6C(F)(F)F)cnc45)cc3Cl)CC2)C1 [Example 574, (4-((1R,3R)-3-aminocyclopentane-1-carbonyl)piperazin-1-yl)(2-chloro-4-((3-(1-(2,2-difluoroethyl)-3-(trifluoromethyl)-1H-pyrazol-4-yl)imidazo[1,2-a]pyrazin-8-yl)amino)phenyl)methanone formate] | – | IC90 [2]: 0.242 µM |
| Cc1cc(Nc2nccn3c(-c4c[nH]nc4C(F)(F)F)cnc23)ccc1C(=O)N1CCN(C(=O)[C@@H]2CCNC2)CC1 [Example 332, [2-methyl-4-[[3-[3-(trifluoromethyl)-1H-pyrazol-4-yl]imidazo[1,2-a]pyrazin-8-yl]amino]phenyl]-[4-[(3R)-pyrrolidine-3-carbonyl]piperazin-1-yl]methanone] | 0.509 | – |

More lines, main results first:

| IC90 [1] [µM] | SMILES | also measured |
| --- | --- | --- |
| 0.144 | CCc1cc(Nc2nccn3c(-c4cn(CC(F)F)nc4C(F)(F)F)cnc23)ccc1C(=O)NCCCN [Example 52, N-(3-aminopropyl)-4-[[3-[1-(2,2-difluoroethyl)-3-(trifluoromethyl)pyrazol-4-yl]imidazo[1,2-a]pyrazin-8-yl]amino]-2-ethylbenzamide] | – |
| 0.15 | NCCNC(=O)CNCCNC(=O)c1ccc(Nc2nccn3c(-c4cn(CC(F)F)nc4C(F)(F)F)cnc23)cc1Cl [Example 820, N-(2-((2-((2-aminoethyl)amino)-2-oxoethyl)amino)ethyl)-2-chloro-4-(3-(1-(2,2-difluoroethyl)-3-(trifluoromethyl)-1H-pyrazol-4-yl)imidazo[1,2-a]pyrazin-8-yl)amino) benzamide formate] | – |
| 0.513 | CCc1cc(Nc2nccn3c(-c4cn(Cc5ccncn5)nc4C(F)(F)F)cnc23)ccc1C(=O)NCCOCCN [Example 2, N-[2-(2-aminoethoxy)ethyl]-2-ethyl-4-[[3-[1-(pyrimidin-4-ylmethyl)-3-(trifluoromethyl)pyrazol-4-yl]imidazo[1,2-a]pyrazin-8-yl]amino]benzamide] | – |
| 0.309 | O=C(NC1CN(C(=O)[C@@H]2C[C@@H](O)CN2)C1)c1ccc(Nc2nccn3c(-c4c[nH]nc4C(F)(F)F)cnc23)cc1Cl [Example 371, 2-chloro-N-[1-[(2S,4R)-4-hydroxypyrrolidine-2-carbonyl]azetidin-3-yl]-4-[[3-[3-(trifluoromethyl)-1H-pyrazol-4-yl]imidazo[1,2-a]pyrazin-8-yl]amino]benzamide] | – |
| 1.02 | CCc1cc(Nc2nccn3c(-c4cn(C)nc4C(F)(F)F)cnc23)ccc1C(=O)NCCCNC(=O)[C@@H]1C[C@@H](O)CN1 [Example 437, (2S,4R)-N-[3-[[2-ethyl-4-[[3-[1-methyl-3-(trifluoromethyl)pyrazol-4-yl]imidazo[1,2-a]pyrazin-8-yl]amino]benzoyl]amino]propyl]-4-hydroxypyrrolidine-2-carboxamide] | – |
| 0.173 | CCc1cc(Nc2nccn3c(-c4cn(CC#N)nc4C(F)(F)F)cnc23)ccc1C(=O)NCCNC(=O)[C@H]1CC[C@@H](N)C1 [Example 496, N-(2-((1S,3R)-3-aminocyclopentane-1-carboxamido)ethyl)-4-((3-(1-(cyanomethyl)-3-(trifluoromethyl)-1H-pyrazol-4-yl)imidazo[1,2-a]pyrazin-8-yl)amino)-2-ethylbenzamide formate] | – |
| 0.091 | CCNC(=O)c1ccc(Nc2nccn3c(-c4cn(CC#N)nc4C(F)(F)F)cnc23)cc1Cl [Example 230, 2-chloro-4-[[3-[1-(cyanomethyl)-3-(trifluoromethyl)pyrazol-4-yl]imidazo[1,2-a]pyrazin-8-yl]amino]-N-ethylbenzamide] | – |
